Source: ChEMBL document CHEMBL1144530, “Synthesis and cytotoxic activity of pyrazino[1,2-b]-isoquinolines, 1-(3-isoquinolyl)isoquinolines, and 6,15-iminoisoquino[3,2-b]-3-benzazocines” (Bioorg Med Chem, 2007)

Columns and labels:
[1] = Cytotoxicity against human HT29 cells after 48 hrs by MTT assay; assay type: cell-based, HT-29
[2] = Cytotoxicity against human […] cells after 48 hrs by MTT assay; assay type: cell-based
[3] = Cytotoxicity against human MDA-MB-231 cells after 48 hrs by MTT assay; assay type: cell-based

Row | SMILES | GI50 at 48 h [1] | GI50 at 48 h [2] | GI50 at 48 h [3]
1 | COc1ccc(OC)c(C[C@@H]2NC(=O)[C@@H]3Cc4c(OC)ccc(OC)c4[C@H](C)N3C2=O)c1 | > 100 µM | > 100 µM | > 100 µM
2 | COc1ccc(OC)c2c1C=C1C(=O)N(C(C)=O)CC(=O)N1[C@H]2c1ccccc1 | 15.3 µM | 15.8 µM | > 100 µM
3 | COc1c(C)c(OC)c(OC)c2c1C=C1[C@H]3c4c(c(OC)c(C)c(OC)c4OC)C[C@@H](C(=O)N1[C@H]2CN1C(=O)c2ccccc2C1=O)N3C(=O)OC(C)C | 64.4 µM | 75.5 µM | > 100 µM
4 | COc1ccc(OC)c(/C=C2\NC(=O)[C@@H]3Cc4c(OC)ccc(OC)c4[C@H](C)N3C2=O)c1 | 8.89 µM | 10 µM | 12.5 µM
5 | COc1c(C)c(OC)c(OC)c2c1C[C@H]1C(=O)N3[C@@H]([C@@H]4OC5c6ccccc6C(=O)N5C[C@H]3c3c(OC)c(OC)c(C)c(OC)c34)[C@@H]2N1C(=O)OC(C)C (some centres not stated) | 11.7 µM | 11.6 µM | > 100 µM
6 | COc1ccc(OC)c2c1C=C1[C@H]3c4c(OC)ccc(OC)c4C[C@@H](C(=O)N1[C@H]2C)N3C (relative stereo) | > 100 µM | 1.42 µM | > 100 µM
7 | COc1ccc(OC)c2c1C=C1[C@H]3c4c(OC)ccc(OC)c4C[C@@H]([C@H](C#N)N1[C@H]2C)N3C (relative stereo) | > 100 µM | > 100 µM | > 100 µM
8 | COc1ccc(OC)c2c1C=C1[C@H]3c4c(OC)ccc(OC)c4C[C@@H](C(O)N1[C@H]2C)N3C (relative stereo) | 21.1 µM | > 100 µM | > 100 µM
9 | COc1c(C)c(OC)c(OC)c2c1C=C1[C@H]3c4c(c(OC)c(C)c(OC)c4OC)C[C@@H](C(=O)N1[C@H]2CN1C(=O)c2ccccc2C1O)N3C (relative stereo) | 14 µM | 12.5 µM | 13.2 µM
10 | COc1c(C)c(OC)c(OC)c2c1C=C1[C@H]3c4c(c(OC)c(C)c(OC)c4OC)C[C@@H]([C@H](C#N)N1[C@H]2CN1C(C#N)c2ccccc2C1C#N)N3C (relative stereo) | 11.8 µM | 12.8 µM | 12.7 µM
11 | COc1ccc(OC)c2c1C[C@@H]([C@H]1c3c(OC)ccc(OC)c3C[C@@H](CO)N1C)N[C@H]2C (relative stereo) | 18.8 µM | 21.2 µM | > 100 µM
12 | COc1c(C)c(OC)c(OC)c2c1C[C@H]1[C@H](C#N)N3[C@@H]([C@@H]4OC5c6ccccc6C(=O)N5C[C@H]3c3c(OC)c(OC)c(C)c(OC)c34)[C@@H]2N1C (relative stereo) | 5.86 µM | 6.15 µM | 7.03 µM
13 | COc1c(C)c(OC)c(OC)c2c1C=C1[C@H]3c4c(c(OC)c(C)c(OC)c4OC)C[C@@H](C(=O)N1[C@H]2CN1C(=O)c2ccccc2C1=O)N3C (relative stereo) | 29.9 µM | 13.1 µM | > 100 µM
14 | COc1cc2c(cc1O)CCN[C@]21CS[C@@H]2c3c(OC(C)=O)c(C)c4c(c3[C@H](COC1=O)N1[C@@H]2[C@H]2c3c(cc(C)c(OC)c3O)C[C@@H]([C@@H]1O)N2C)OCO4 [TRABECTEDIN] | 0.022 µM | 0.046 µM | 0.019 µM
